Test results published in EP3158990A1 (Glano Tech Ltd, priority 2015, dated 2017).

What was measured:
[1] = system: smooth muscle of the corpora cavernosa of rats; experiment: Relaxation/contraction of rat corpus cavernosum tissue samples (force displacement transducer); type: cell-based, Wistar-type rats; conditions: for relaxation of the tissue of the corpora cavernosa: tissue constricted with norepinephrine, scalar solutions 10^-5 M to 10^-3 M
Text: In particular, this model is used for planning experiments aimed at checking the vasodilatory action of NO on vascular smooth muscle cells, since the methodology presented by the authors allows samples of corpus cavernosum tissue to be obtained from rats, on which studies of response to various exogenous molecules can be conducted, to detect their relaxation/contraction effects on smooth muscle cells.
The work we selected and the experimental model on which we based our observations can easily be traced in the following work: G. Italiano, A. Calabrò and F. Pagano of the Urology Institute of Padua University, published in Pharmacology Therapeutics (Vol 30 no 4, 1994 pp. 325-334).
We used 20 adult Wistar-type rats weighing between 175 and 200 g; after having sacrificed the rats we obtained corpus cavernosum tissues as described by the methods and placed these in a Krebs solution (in mM: 118 NaCl, 4,7 KCI, 1,2 KH2PO4, 1,2 MgSO4, 1,5 CaCl2, 25 NaHCO3, 11 glucose).
A single sample was taken from each rat.
The excised tissues were then put in 10 mL Krebs solution and held in place by two metal arms to allow assessment of any changes in the forces observed and assessed by the Grass FT03 model (using a force displacement transducer apparatus to assess the muscle tension of tissues, calibrated in mN). The saline solution containing the tissues (Krebs solution) was kept at pH 7.4 ±0.1 and at 37°C, with oxygenation using a mixture of 95% oxygen and 5% carbon dioxide.

[2] = Analysis of the mixed solution (infrared nitrite peak, visible UV spectrum); type: physicochemical
[3] = system: rat model with type 1 diabetes induced by streptozotocin; experiment: In-vivo test of sexual function in diabetic rat models; design: species or system male Wistar rats
Protocol: Next we tested the possible beneficial effects of SNO-pantetheine on sexual function in a rat model with type 1 diabetes induced by streptozotocin, which is typically accompanied by deficit of sexual activity.
In short, male Wistar rats were assigned to a cage (45 × 50 × 35 cm) covered in glass and lit with red light. Training took place every day after 5 pm for about 30 min, and after 10 minutes of acclimatisation a female rat in an oestrogenic phase was introduced into the cage. We then observed the sexual behaviour of diabetic rats vs. the relevant controls by measuring standard parameters (Burnett et al., 1995).

With `NC[C@H](O)c1ccc(O)c(O)c1` [norepinephrine, reference compound] the constriction ([1]; scalar solutions 10^-8 M to 10^-3 M, Krebs solution pH 7.4, 37°C) was “about 1.5 mN”.
With `CC(C)(CO)[C@@H](O)C(=O)NCCC(=O)NCCSN=O` [SNO-pantetheine, S-nitrosothiol of pantetheine] the “nitrosothiol remains sufficiently stable” value ([2]; at room temperature, after mixing of phases A and B) was “more than 1 hour”, the “relaxation of the tissue of the corpora cavernosa” value [1] was “the effect of the norepinephrine was cancelled out” and the “EL (Ejaculation latency)” value ([3]; Day 0, topical application) was 423.2 ± 12.5 s. The “IF (Introduction frequency)” value ([3]; Day 0, topical application) was 11.2 ± 0.9 number, the “IL (Introduction latency)” value ([3]; Day 0, topical application) was 52.3 ± 3.9 s and the “MF (Mating frequency)” value ([3]; Day 0, topical application) was 12.0 ± 1.7 number. For the same compound, the “ML (Mating latency)” value ([3]; Day 0, topical application) was 42.5 ± 2.9 s, the “PEI (Post-ejaculatory interval)” value ([3]; Day 0, topical application) was 343.3 ± 10.9 s and the “EL (Ejaculation latency)” value ([3]; Day 30, topical application) was 375.8 ± 10.8 s. The “IF (Introduction frequency)” value ([3]; Day 30, topical application) was 14.5 ± 0.8 number, the “IL (Introduction latency)” value ([3]; Day 30, topical application) was 44.7 ± 4.2 s and the “MF (Mating frequency)” value ([3]; Day 30, topical application) was 11.2 ± 0.3 number. The “ML (Mating latency)” value ([3]; Day 30, topical application) was 34.3 ± 2.5 s and the “PEI (Post-ejaculatory interval)” value ([3]; Day 30, topical application) was 386.2 ± 14.3 s.
With S-nitrosothiol of alpha lipoic acid the “relaxation of the tissue of the corpora cavernosa” value [1] was “very similar to that of the S-nitrosothiol of pantetheine”.
In the case of `O=C(O)CCCCC1CCSS1` (stereo not drawn) [alpha lipoic acid], the “results of the reaction compared with pantetheine (nitrite consumption, S-nitroso compound formation)” value ([2]; alpha lipoic acid used as SH group donor instead of pantetheine) was “comparable results”.
